In brackets after ≈: the same amount, converted by molar mass.
Experiments:
Candida albicans OUT6004 = test: Antimicrobial activity test (in vitro), minimal inhibitory concentration against Candida, pulp assay method; type: cell-based; details: malt agar
From the text: Antimicrobial activity test (in vitro):
Minimal inhibitory concentration (MIC) against Candida: (Candida albicans OUT6004)
Method: Pulp assay method

Candida albicans FP-614 = test: Minimal inhibitory concentration against Candida albicans, agar dilution method (FP-614); type: cell-based; details: FP614, malt agar
From the text: (§1) Antimicrobial activities of the compound in Example 98 [1-(6-amino-9H-purin-9-yl)-1,3-dideoxy-3-(O-methyl-L-tyrosylamino)-β- D-ribofuranuronic acid dihydrochloride monohydrate] against some species of Candida.
(§2) Minimal inhibitory concentration (MIC) against Candida albicans:
(§3) Method: Agar dilution method

[1] = Solubilities to various solvents
[2] = Toxicity, intraperitoneal administration into mice; type: in vivo; details: more than 1,000 mg/kg
Candida albicans FP-633 [3] = test: Minimal inhibitory concentration against Candida albicans, agar dilution method (FP-633); type: cell-based; details: FP633, malt agar
From the text: as §1, §2, §3

Candida albicans FP-618 = test: Minimal inhibitory concentration against Candida albicans, agar dilution method (FP-618); type: cell-based; details: FP618, malt agar
From the text: as §1, §2, §3

Candida albicans FP-616 = test: Minimal inhibitory concentration against Candida albicans, agar dilution method (FP-616); type: cell-based; details: FP616, malt agar
From the text: as §1, §2, §3

Candida albicans FP-622 = test: Minimal inhibitory concentration against Candida albicans, agar dilution method (FP-622); type: cell-based; details: FP622, malt agar
From the text: as §1, §2, §3

Candida albicans FP-633 [4] = test: Protective efficacy in experimental infection in mice; type: in vivo, mice (ddY-strains); details: one hour after i.v. infection, one week after infection
From the text: Protective efficacy in experimental infection in mice:
In determining the protective efficacy against experimental infections of Candida in mice, the compound in Example 98 [1-(6-amino-9H-purin-9-yl)-1,3-dideoxy-3-(O-methyl-L-tyrosylamino)-β- D-ribofuranuronic acid dihydrochloride monohydrate] was suspended and diluted in sterile water to provide three concentrations of the drug for testing ddY-strains of mice aged 5 weeks and averaging 20 g in weight. Mice were used in groups of 5 mice each. One hour after the intravenous injection of 3.0×10^6 of Candida albicans FP-633 cells to each mouse, the drug solutions were administered subcutaneously or orally at the level mentioned below respectively.
One week after the infection, the test was considered complete and survival records of that day were made.

Candida albicans FP-620 = test: Minimal inhibitory concentration against Candida albicans, agar dilution method (FP-620); type: cell-based; details: FP620, malt agar
From the text: as §1, §2, §3

`Nc1ncnc2c1ncn2[C@@H]1O[C@H](C(=O)O)[C@@H](NC(=O)C(N)Cc2ccc([N+](=O)[O-])cc2)[C@H]1O` (mixture of isomers) [Example 73, 1-(6-Amino-9H-purin-9-yl)-1,3-dideoxy-3-[β-(4-nitrophenyl)-D,L-alanylamino]-β-D-ribofuranuronic acid] gave an MIC (Candida albicans OUT6004) of 31 µg/mL.

`Nc1ncnc2c1ncn2[C@@H]1O[C@H](C(=O)O)[C@@H](NC(=O)[C@@H](N)Cc2ccccc2)[C@H]1O` [Example 39, 1-(6-amino-9H-purin-9-yl)-1,3-dideoxy-3-(L-phenylalanylamino)-β-D-ribofuranuronic acid] gave an MIC (Candida albicans OUT6004) of 31 µg/mL (≈ 72.5 µM).

In the case of `COc1ccc(C[C@H](N)C(=O)N[C@H]2[C@@H](O)[C@H](n3cnc4c(N)ncnc43)O[C@@H]2C(=O)NCC(=O)O)cc1` [Example 55, N-Carboxymethyl-1-(6-amino-9H-purin-9-yl)-1,3-dideoxy-3-(O-methyl-L-tyrosylamino)-β-D-ribofuranuronamide], the MIC (Candida albicans OUT6004) is reported as 31 µg/mL (≈ 60.3 µM).

With `COc1ccc(C[C@H](N)C(=O)N[C@H]2[C@@H](O)[C@H](n3cnc4c(N)ncnc43)O[C@@H]2C(=O)O)cc1.Cl.Cl.O` [Example 98, 1-(6-Amino-9H-purin-9-yl)-1,3-dideoxy-3-(O-methyl-L-tyrosylamino)-β-D-ribofuranuronic acid dihydrochloride monohydrate] the MIC (Candida albicans FP-614) was 0.8 µg/mL, the Solubility ([1]; acetone) was “Insoluble” and the Solubility ([1]; chloroform) was “Insoluble”. For the same molecule, the Solubility ([1]; ethyl acetate) was “Insoluble”, the Solubility ([1]; methanol) was “Slightly soluble” and the Solubility ([1]; water) was “Slightly soluble”. For the same molecule, the Toxic symptom [2] was “did not result in any toxic symtom”, the MIC (Candida albicans FP-633 [3]) was 1.6 µg/mL and the MIC (Candida albicans FP-618) was 0.8 µg/mL. For the same molecule, the MIC (Candida albicans FP-616) was 0.2 µg/mL, the MIC (Candida albicans FP-622) was 3.1 µg/mL and the Survival/infected (Candida albicans FP-633 [4]; oral, 10 mg/kg) was 1/5. The Survival/infected (Candida albicans FP-633 [4]; oral, 30 mg/kg) was 3/5, the Survival/infected (Candida albicans FP-633 [4]; subcutaneous, 5 mg/kg) was 1/5 and the Survival/infected (Candida albicans FP-633 [4]; subcutaneous, 15 mg/kg) was 4/5. It also gave an MIC (Candida albicans FP-620) of 0.2 µg/mL and an MIC (Candida albicans OUT6004) of 16 µg/mL.

From patent publication US4479942A, “Tetrahydrofurnancarboxylic acid derivatives, processes for preparation thereof and pharmaceutical compositions thereof” (Fujisawa Pharmaceutical Co., Ltd., priority 1981, dated 1984)
